Consider two compounds from article PMC6383986, “Fragment-Based Covalent Ligand Screening Enables Rapid Discovery of Inhibitors for the RBR E3 Ubiquitin Ligase HOIP” (Journal of the American Chemical Society, 2019).

For one assay, the target named is T1, HOIP RBR C885S (Homo sapiens, UniProt Q96EP0, C885S).
T1 construct: 697-1072; made in house; host or cells: E. coli BL21-GOLD(DE3)
Kind of assay: Protein LC-MS labeling of active-site mutant. Particulars: 200 μM compound (100-fold excess), 2 μM protein, 4 h. The assay is classed as binding. As for the experimental part:
negative control and compound solutions data points were acquired after 0.5, 4, and 24 h […]
Protocol as described above, using the HOIP RBR C885S mutant (155 µM stock solution in 50 mM HEPES, 150 mM NaCl, 1 mM DTT, pH 7.5) and 50 mM HEPES, 150 mM NaCl, pH 7.5 buffer.
The stock solution at 4 µM (25 µL per sample, final concentration 2 µM, 87 µg/mL), was mixed with buffer (24.5 µL) and compound (5) (0.5 µL of 2, and 20 mM stock solutions in DMSO, giving a final concentration of 20 and 200 µM respectively, and 1% DMSO). Data points were acquired after 0.5 and 4 h incubation.
The HOIP RBR domain wild type was diluted with 50 mM HEPES, 150 mM NaCl, pH 7.5 buffer to afford a new stock solution at 2.02 µM, which was aliquoted into 10 × 297 µL. […]
thawed individually and analyzed by protein mass spectrometry as described above. The total ion counts (TICs) detected for unlabelled HOIP and labelled HOIP-(5) conjugate within a peak elution range of 10 seconds were used to calculate the ratio of labelled HOIP RBR over total HOIP RBR content for each sample. The averaged data from 3 independent experiments were analyzed according to a two-step model of reversible ligand binding followed by irreversible covalent modification (Supplementary Figure S2A),11 fitted to a single exponential equation (equation 1, Supplementary Figure S2B) using GraFit (v.7). […]

A further assay deals with T2, IRAK4 (Homo sapiens, UniProt Q9NWZ3).
T2 construct: recombinant full length IRAK4-FLAG; His6 (with the rest of the FlagHisAvi vector tag) (C, cleaved yes); made in house; host or cells: Sf9 insect cells (baculovirus)
T2 sequence (Q9NWZ3 whole entry): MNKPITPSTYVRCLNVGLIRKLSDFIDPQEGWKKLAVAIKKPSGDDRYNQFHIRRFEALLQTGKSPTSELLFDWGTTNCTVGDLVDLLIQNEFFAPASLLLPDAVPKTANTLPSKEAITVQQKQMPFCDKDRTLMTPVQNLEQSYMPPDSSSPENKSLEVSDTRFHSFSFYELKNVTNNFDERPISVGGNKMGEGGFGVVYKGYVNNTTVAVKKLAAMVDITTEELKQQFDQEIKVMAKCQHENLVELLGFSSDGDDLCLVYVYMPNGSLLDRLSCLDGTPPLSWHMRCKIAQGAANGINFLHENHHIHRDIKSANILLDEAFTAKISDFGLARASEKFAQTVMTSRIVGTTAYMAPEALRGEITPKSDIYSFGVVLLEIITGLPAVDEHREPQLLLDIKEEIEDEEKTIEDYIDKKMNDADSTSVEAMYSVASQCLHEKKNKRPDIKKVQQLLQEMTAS
Kind of assay: IMAP-FP IRAK4 substrate phosphorylation assay. The assay is classed as biochemical.

Assay [1] addresses T3, full-length recombinant IRAK4-FLAG (Homo sapiens, UniProt Q9NWZ3).
T3 construct: recombinant full length IRAK4-FLAG; His6 (with the rest of the FlagHisAvi vector tag) (C, cleaved yes); made in house; host or cells: Sf9 insect cells (baculovirus)
Kind of assay: LCMS labelling of recombinant IRAK4. Format: binding. The conditions noted are these: 300 μM compound, 1.5 μM IRAK4, 1 h. As to the method: filter BODIPY FP S-pol 595). The percentage activity was plotted against different compound concentrations and fitted using the IC50 – 4 parameter logistic using GraFit7 Software (Supplementary Figure S17). Percentage activity was calculated by dividing each value by values for no inhibition, then multiplying it by 100. Background correction was carried out by subtracting […]
Two independent experiments were carried out in duplicate.
IRAK4 (1.5 µM) was incubated with compound (11a) (300 µM) in water at ambient temperature for 1 h (final volume 20 µL), and analyzed by LCMS. […]
kinase activity. A) Serial dilutions of compound (11a) (200 µM final top concentration) and IRAK4 […]
concentration) for 1 h before adding 5TAMRA-[…]-NH2 (100 nM final […]
concentration) and ATP (50 μM final concentration). […]
independent experiments, each performed in duplicate.
B) IRAK4 (1.5 µM) was incubated with compound (11a) (300 µM) for 1 h and analyzed by LCMS. The DMSO control was incubated for 5 h. For reference GT-hIRAK4-FLAG (tetraphosphorylated; MW = 53003 Da), compound (11a) (MW = 290 Da).
(1 picture or pasted object on this page, not shown here)

Entries after “also recorded” stand apart in the source; their conditions may differ.

T1 sequence (Q96EP0 697-1072 C885S): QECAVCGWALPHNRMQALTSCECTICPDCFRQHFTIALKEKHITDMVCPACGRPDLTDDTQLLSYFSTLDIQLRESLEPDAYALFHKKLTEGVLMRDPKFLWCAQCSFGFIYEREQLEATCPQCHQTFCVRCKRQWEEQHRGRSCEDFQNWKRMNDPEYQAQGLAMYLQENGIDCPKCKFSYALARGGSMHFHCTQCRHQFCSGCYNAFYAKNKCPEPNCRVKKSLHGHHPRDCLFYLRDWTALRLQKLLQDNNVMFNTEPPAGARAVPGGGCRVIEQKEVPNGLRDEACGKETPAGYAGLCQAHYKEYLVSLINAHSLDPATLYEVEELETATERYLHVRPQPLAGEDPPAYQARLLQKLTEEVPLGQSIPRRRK
T3 sequence (Q9NWZ3 whole entry): as the sequence (Q9NWZ3 whole entry) above

As to `COC(=O)/C=C/CNC(=O)c1cc2c([nH]c1=O)CCC2` [Compound 5], the “labeling of HOIP RBR C885S” value on HOIP RBR C885S is on record as “did not result in protein labeling; also recorded: not labeled”.
As for `COC(=O)/C=C/CNC(=O)c1cc2c([nH]c1=O)CCCC2` [Compound 11a], the IC50 (in general, the concentration at which inhibition is half-maximal) at IRAK4 (1 h preincubation, 6 nM IRAK4, 50 μM ATP) is over 200 µM. The “inhibition of IRAK4 substrate phosphorylation” value against IRAK4 (concentrations up to 200 μM) was “no inhibition”. The “labelling of IRAK4-FLAG” value in assay [1] is listed as “confirmed by LCMS”.
